In PubChem BioAssay AID248 (DTP/NCI, 2004):
“And” between values parts separate entries of the source, which are not always exact repeats. Identical values can stand only once. Inconclusive results and toxic doses are left out. No stated cut-off is given here; in the data, active means T/C of 150% or more; inactive means T/C below 125%.

Test system: L1210 leukemia ip in BDF1 mice, survival T/C
Assay: NCI In Vivo Anticancer Drug Screen. Data for tumor model L1210 Leukemia (intraperitoneal) in B6D2F1 (BDF1) mice
Details: endpoint: mean survival time, higher = longer survival
Outline: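 Tumor cells were implanted, animals were treated, and survival was followed. The result divides the treated measurement by the vehicle-control measurement.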

[1] = dose: 100.0 mg/kg/injection, schedule: Q01DX001 (ip), vehicle: carboxymethylcellulose (CMC)
[2] = dose: 200.0 mg/kg/injection, schedule: Q01DX001 (ip), vehicle: carboxymethylcellulose (CMC)
[3] = dose: 400.0 mg/kg/injection, schedule: Q01DX001 (ip), vehicle: carboxymethylcellulose (CMC)
[4] = dose: 100.0 mg/kg/injection, schedule: Q04DX003 (ip), vehicle: saline with Tween-80
[5] = dose: 200.0 mg/kg/injection, schedule: Q04DX003 (ip), vehicle: saline with Tween-80
[6] = dose: 400.0 mg/kg/injection, schedule: Q04DX003 (ip), vehicle: saline with Tween-80
[7] = dose: 100.0 mg/kg/injection, schedule: Q01DX009 (ip), vehicle: saline
[8] = dose: 200.0 mg/kg/injection, schedule: Q01DX009 (ip), vehicle: saline
[9] = dose: 400.0 mg/kg/injection, schedule: Q01DX009 (ip), vehicle: saline
[10] = dose: 100.0 mg/kg/injection, schedule: Q04DX003 (ip), vehicle: saline
[11] = dose: 200.0 mg/kg/injection, schedule: Q04DX003 (ip), vehicle: saline
[12] = dose: 400.0 mg/kg/injection, schedule: Q04DX003 (ip), vehicle: saline
[13] = dose: 100.0 mg/kg/injection, schedule: Q04DX003 (ip), vehicle: Klucel (hydroxypropylcellulose) (HPC)
[14] = dose: 200.0 mg/kg/injection, schedule: Q04DX003 (ip), vehicle: Klucel (hydroxypropylcellulose) (HPC)
[15] = dose: 100.0 mg/kg/injection, schedule: Q01DX009 (ip), vehicle: Klucel (hydroxypropylcellulose) (HPC)
[16] = dose: 200.0 mg/kg/injection, schedule: Q01DX009 (ip), vehicle: Klucel (hydroxypropylcellulose) (HPC)
[17] = dose: 400.0 mg/kg/injection, schedule: Q04DX003 (ip), vehicle: Klucel (hydroxypropylcellulose) (HPC)

Measured: T/C

O=C(N/N=C/c1cccc([N+](=O)[O-])c1)C(O)C(O)C(O)C(O)CO (stereo unspecified)
inactive: [1] 97 % of control | dose: 100.0 mg/kg/injection, schedule: Q01DX009 (ip), vehicle: carboxymethylcellulose (CMC) 102 % of control | dose: 100.0 mg/kg/injection, schedule: Q04DX002 (ip), vehicle: carboxymethylcellulose (CMC) 100 % of control | dose: 100.0 mg/kg/injection, schedule: Q04DX003 (ip), vehicle: carboxymethylcellulose (CMC) 94 % of control | [2] 104 % of control | dose: 200.0 mg/kg/injection, schedule: Q01DX009 (ip), vehicle: carboxymethylcellulose (CMC) 104 % of control and 91 % of control | dose: 200.0 mg/kg/injection, schedule: Q04DX002 (ip), vehicle: carboxymethylcellulose (CMC) 96 % of control and 106 % of control | dose: 200.0 mg/kg/injection, schedule: Q04DX003 (ip), vehicle: carboxymethylcellulose (CMC) 100 % of control | [3] 95 % of control | dose: 400.0 mg/kg/injection, schedule: Q01DX009 (ip), vehicle: carboxymethylcellulose (CMC) 94 % of control | dose: 400.0 mg/kg/injection, schedule: Q04DX002 (ip), vehicle: carboxymethylcellulose (CMC) 103 % of control and 91 % of control | dose: 400.0 mg/kg/injection, schedule: Q04DX003 (ip), vehicle: carboxymethylcellulose (CMC) 94 % of control

CCc1cccc[n+]1CC(=O)c1ccccc1
inactive: dose: 6.25 mg/kg/injection, schedule: Q01DX009 (ip), vehicle: saline 95 % of control | dose: 12.5 mg/kg/injection, schedule: Q01DX009 (ip), vehicle: saline 98 % of control | dose: 25.0 mg/kg/injection, schedule: Q04DX003 (ip), vehicle: saline 96 % of control

CC1(C)CC2(OC2c2ccccc2)C(C)(O)c2ccccc21 (stereo unspecified)
inactive: [4] 98 % of control | [5] 104 % of control | [6] 96 % of control

c1ccc2c(c1)CNNC2
inactive: dose: 25.0 mg/kg/injection, schedule: Q01DX009 (ip), vehicle: saline 97 % of control | dose: 50.0 mg/kg/injection, schedule: Q01DX009 (ip), vehicle: saline 96 % of control | [7] 102 % of control | [8] 103 % of control | [9] 105 % of control

CCN(CC)CCOC(=O)C1C2CC3OC(=O)C1C3C2 (stereo unspecified)
inactive: [10] 108 % of control | [11] 95 % of control | [12] 92 % of control

C=CCc1ccc(OCCOCCNC2C(C)CCCC2(C)C)c(OC)c1 (stereo unspecified)
inactive: dose: 5.0 mg/kg/injection, schedule: Q01DX009 (ip), vehicle: Klucel (hydroxypropylcellulose) (HPC) 101 % of control | dose: 5.0 mg/kg/injection, schedule: Q04DX003 (ip), vehicle: Klucel (hydroxypropylcellulose) (HPC) 96 % of control | dose: 10.0 mg/kg/injection, schedule: Q01DX009 (ip), vehicle: Klucel (hydroxypropylcellulose) (HPC) 100 % of control | dose: 10.0 mg/kg/injection, schedule: Q04DX003 (ip), vehicle: Klucel (hydroxypropylcellulose) (HPC) 90 % of control | dose: 20.0 mg/kg/injection, schedule: Q01DX009 (ip), vehicle: Klucel (hydroxypropylcellulose) (HPC) 97 % of control | dose: 20.0 mg/kg/injection, schedule: Q04DX003 (ip), vehicle: Klucel (hydroxypropylcellulose) (HPC) 96 % of control

NNc1n[nH]c(=O)n1N
inactive: [13] 113 % of control | [14] 100 % of control

COc1ccc(NC(=S)NNC(=S)NNc2ccccc2)cc1
inactive: [15] 90 % of control | [13] 93 % of control | [16] 89 % of control | [14] 92 % of control | [17] 86 % of control

CCC[n+]1nc2ccccc2c(=Nc2ccccc2[N+](=O)[O-])[n-]1
inactive: dose: 100.0 mg/kg/injection, schedule: Q01DX001 (ip), vehicle: Klucel (hydroxypropylcellulose) (HPC) 100 % of control | [13] 98 % of control | dose: 200.0 mg/kg/injection, schedule: Q01DX001 (ip), vehicle: Klucel (hydroxypropylcellulose) (HPC) 100 % of control | [14] 106 % of control | dose: 400.0 mg/kg/injection, schedule: Q01DX001 (ip), vehicle: Klucel (hydroxypropylcellulose) (HPC) 98 % of control | [17] 101 % of control

NC(=O)c1ccccc1OC(=O)Nc1ccc(F)c([N+](=O)[O-])c1
inactive: [15] 97 % of control | [16] 104 % of control | dose: 400.0 mg/kg/injection, schedule: Q01DX009 (ip), vehicle: Klucel (hydroxypropylcellulose) (HPC) 101 % of control

O=C(O)CCC(=O)Nc1ccccc1C(F)(F)F
inactive: [4] 104 % of control | dose: 200.0 mg/kg/injection, schedule: Q01DX009 (ip), vehicle: saline with Tween-80 93 % of control | [5] 98 % of control | dose: 400.0 mg/kg/injection, schedule: Q01DX009 (ip), vehicle: saline with Tween-80 86 % of control | [6] 90 % of control

CCOC1(OCC)C(C)C(c2ccccc2)C(c2ccccc2)C1C (stereo unspecified)
inactive: dose: 75.0 mg/kg/injection, schedule: Q01DX001 (ip), vehicle: saline 95 % of control | dose: 150.0 mg/kg/injection, schedule: Q01DX001 (ip), vehicle: saline 90 % of control | dose: 300.0 mg/kg/injection, schedule: Q01DX001 (ip), vehicle: saline 89 % of control

CC(C)(O)c1cnnn1CCC[CH2][Pb]([c]1ccccc1)([c]1ccccc1)[c]1ccccc1
inactive: dose: 50.0 mg/kg/injection, schedule: Q01DX001 (ip), vehicle: carboxymethylcellulose (CMC) 102 % of control | [1] 105 % of control | [2] 102 % of control | [3] 96 % of control

Cc1ccc(-n2nnc3ccccc3c2=O)cc1C
inactive: [7] 101 % of control | [10] 92 % of control | [8] 98 % of control | [11] 108 % of control | [9] 104 % of control | [12] 93 % of control
